Values quoted from earlier work, collected in paper PMC2360332 (British Journal of Cancer, 2007).

Assays:
breast cancer = conditions: cited from earlier work
breast cancer growth = system: breast cancer growth; set-up: method as in Lippman and Bolan, 1975; conditions: ref Lippman and Bolan, 1975; cited from earlier work
[1] = system: breast cancer that had become resistant to the cytostatic effects of tamoxifen; conditions: ref Bennett et al, 2002; cited from earlier work
Description: (§1) A peptide (α-fetoprotein-derived peptide (AFPep), sequence cyclo(EKTOVNOGN), where O is hydroxyproline) derived from the active site of α-fetoprotein (AFP) has been under investigation as a potential agent for prevention or therapy of oestrogen receptor-positive (ER+) breast cancer ([Mesfin et al, 2000], [2001]; [Bennett et al, 2002], [2006]; [DeFreest et al, 2004]).

[2] = system: MNU-induced breast cancers in rats; conditions: ref Parikh et al, 2005; cited from earlier work
Description: as §1

[3] = system: human breast cancer xenografts; conditions: cited from earlier work
Description: as §1, with “2004]). […] In fact, in this study and ...” for “2004]).”

ER = conditions: ref Parikh et al, 2005; Bennett et al, 2006; cited from earlier work
Description: (§2) In fact, in this study and ...

immature mouse uterus = conditions: earlier study; ref Bennett et al, 2002; cited from earlier work
Description: as §2

Molecule	Risk of primary breast cancers (in words) (breast cancer; high-risk patients, ref Fisher et al, 1998)	Breast cancer recurrences (in words) (breast cancer; ref Early Breast Cancer Trialists' Collaborative Group, 1992)	Breast cancer growth (in words) (breast cancer growth)	Growth of tamoxifen-resistant breast cancer (in words) [1]	Development of carcinogen-induced mammary cancers in rats (in words) [2]	Oral activity (in words) ([3]; oral route, ref Bennett et al, 2006)	Growth of human breast cancer xenografts in mice (in words) ([3]; ref Mesfin et al, 2001)	ER antagonist / partial agonist (in words) (ER)	Tam-induced uterine hyperplasia (in words) (immature mouse uterus)
CC/C(=C(\c1ccccc1)c1ccc(OCCN(C)C)cc1)c1ccccc1 [Tam, Tamoxifen, reference compound]	decrease the risk of primary breast cancers in high-risk patients	inhibit breast cancer recurrences	inhibit breast cancer growth						
cyclo(EKTOVNOGN) (head to tail) [AFPep]				inhibit the growth of breast cancer that had become resistant to the cytostatic effects of tamoxifen	prevent the development of carcinogen-induced mammary cancers in rats	active by the oral route	inhibit the growth of human breast cancer xenografts in mice	not an ER antagonist, nor an ER partial agonist	interferes with the uterine hyperplasia induced by Tam
